Results: paper PMC6801510, “A2A Receptor Homodimer-Disrupting Sequence Efficiently Delivered by a Protease-Resistant, Cyclic CPP Vector” (International Journal of Molecular Sciences, 2019)
Ends that are not written are not given here.

What was measured:
[1] = target: T1, A2AR homodimer (A2A-cYFP / A2A-nYFP) in HEK-293T cells (Homo sapiens, UniProt P29274); assay: Bimolecular fluorescence complementation (BiFC) assay of A2A receptor homodimer disruption; assay type: cell-based; conditions: 4 h incubation with peptide; for Effect on the control BiFC fluorescence (A2AR dimerization): HEK-293T cells, A2A-cYFP / A2A-nYFP, versus fluorescence of the dimer in the absence of peptides
T1 construct: expressed in transfected cells; host or cells: HEK-293T
Protocol: For bimolecular fluorescence complementation (BiFC) assays: cells were transfected using cDNAs coding for two versions of the receptor. As described elsewhere [18, 27], two cDNAs were prepared: each encoding the receptor fused to one of the two halves of the super yellow fluorescent protein (sYFP). […] Each half of the fluorescent protein is unable, by itself, to emit fluorescence, which is only feasible after complementation of the two halves of the sYFP.
To address homodimer disruption, bimolecular fluorescence complementation assays were performed using HEK-293T cells transfected with equal amounts of cDNAs (0.75 µg cDNA each) for A2A-cYFP and A2A-nYFP fusion proteins (intramural production, see [17, 18, 26, 28]). […] Fluorescence was recorded in a Fluostar Optima fluorimeter (BMG Labtechnologies, Offenburg, Germany). […] Values of fluorescence obtained in the absence or presence of peptides are given as mean ± standard error of the mean (SEM) of 16 independent experiments in duplicates.

[2] = system: trypsin; assay: Trypsin digestion followed by HPLC; assay type: in vitro ADME; conditions: trypsin (isolated protease), after 30 min, peptide:trypsin 100:1, peptide 1 µg/µL, 50 mM ammonium bicarbonate buffer pH 8.2, 37 °C, reverse-phase HPLC-MS read-out, assays in duplicate, read-out: Decrease in the area of the starting HPLC peak on trypsin treatment
Excerpt: It was of particular interest to ascertain how the internal cyclization and D-amino acid modifications influenced the lifespan of the partially cyclic structures. To this end, peptides 1 and 2, both with a TM5 disruptor sequence fused to a linear or a cyclic CPP motif, respectively, were inspected by high-performance liquid chromatography (HPLC) upon trypsin treatment. Analysis confirmed the vulnerability of fully linear 1 (Figure 3), with a 90% decrease in the area of the starting peak after only 30 min (Figure 4), and the appearance of new peaks identified by mass spectrometry (MS) (Table 2).
A 1000 µg/1000 µL trypsin solution (Thermo Fisher Scientific, Cornellà de Llobregat, Spain) […]) was prepared by suspending the lyophilized enzyme in 50 mM ammonium bicarbonate buffer, pH 8.2. Peptides dissolved in the same buffer (1 µg/µL) were incubated with trypsin (peptide:trypsin ratio = 100:1) for 24 h at 37 °C. Samples were collected at various time points and digestion was stopped by addition of 20% (v/v) of 0.5% formic acid in H2O. Samples were stored at −20 °C until analyzed by reverse-phase HPLC-MS.

[3] = target: T2, adenosine A2A receptor, fused to one half of super yellow fluorescent protein (A2A-cYFP or A2A-nYFP), BiFC … (UniProt P29274 1-412); assay: split reporter (BiFC, NanoBiT); competition: HEK-293T cells expressing A2A-cYFP and A2A-nYFP treated with TM5 peptides 1 or 2 for 4 h before the complementation assay, in supplemented DMEM; dose-dependent loss of YFP fluorescence; conditions: one partner purified
T2 construct: source: HEK-293T, transfected, in living cells
T2 sequence (P29274 whole entry, the tested form may be a part): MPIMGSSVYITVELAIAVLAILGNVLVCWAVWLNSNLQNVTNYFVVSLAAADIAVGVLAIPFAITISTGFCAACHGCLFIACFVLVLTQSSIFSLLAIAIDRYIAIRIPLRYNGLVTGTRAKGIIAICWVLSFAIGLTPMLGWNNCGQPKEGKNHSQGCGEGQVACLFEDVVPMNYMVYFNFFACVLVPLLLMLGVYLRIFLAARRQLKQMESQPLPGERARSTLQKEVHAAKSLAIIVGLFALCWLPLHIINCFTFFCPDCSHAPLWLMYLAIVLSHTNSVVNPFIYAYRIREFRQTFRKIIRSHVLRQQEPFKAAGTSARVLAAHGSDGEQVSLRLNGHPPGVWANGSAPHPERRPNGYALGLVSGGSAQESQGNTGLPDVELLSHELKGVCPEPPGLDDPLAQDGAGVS

T1 sequence (P29274 whole entry): as the sequence (P29274 whole entry, the tested form may be a part) above

Molecule | Effect on the control BiFC fluorescence (A2AR dimerization) [1] | metabolised at 0.5 h, 1 µg/µL [2] [%] | IC50 ([1]; HEK-293T cells transfected with A2A-cYFP and A2A-nYFP, 48 h post-transfection, supplemented DMEM, Figure 2B, mean +/- SD, n = 12 in duplicates, read-out: IC50 for reduction of BiFC (sYFP complementation) fluorescence of the A2AR homodimer) [nM] | IC50 [3] [nM]
MNYMVYFNFFACVLVPLLLMLGVYLYGRKKRRQRRR-NH2 [Peptide 1] | affected the fluorescence of the control in a dose-dependent manner | 90 |  | 
MNYMVYFNFFACVLVPLLLMLGVYL[KrRrGrKkRrE]-amide (sidechain bridge or staple) [Peptide 2, Cyclic Tat-like TM5: A2AR TM5 fused to cyclic KrRrGrKkRrE motif, N-terminus acetylated] | affected the fluorescence of the control in a dose-dependent manner |  | 350 | 
MNYMVYFNFFACVLVPLLLMLGVYLKRRRGRKKRRE (also: cyclic (mode of cyclisation not given here), also called TM5-cyclic Tat-like; cyclic version 2; source: synthetic peptide (Fmoc solid-phase synthesis, on-resin cyclization, purified by preparative HPLC)) [Peptide 2, cyclic Tat-like TM5] |  |  |  | 350
MNYMVYFNFFACVLVPLLLMLGVYLYGRKKRRQRRR-NH2 (TM5 helical domain of the adenosine A2A receptor (A2AR); also called linear TM5-Tat; linear peptide 1; source: synthetic peptide (Fmoc solid-phase synthesis, purified by preparative HPLC)) [Peptide 1, linear Tat-based TM5] |  |  |  | 520
